Measurements taken from PubChem BioAssay (NCI).
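Interpolation was linear, between the two tested concentrations surrounding the appropriate level; five concentrations were tested over 48 hours in 96-well plates. GI50 marks 50% less growth. TGI marks complete inhibition of growth.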

Experiments:
Assay in all cases: NCI-60 cell line screen, 48 h
786-0 renal = system: 786-0 renal
A498 renal = system: A498 renal
A549 NSCLC = system: A549 NSCLC
ACHN renal = system: ACHN renal
BT-549 breast = system: BT-549 breast
CAKI-1 renal = system: CAKI-1 renal
CCRF-CEM leukemia = system: CCRF-CEM leukemia
DU-145 prostate = system: DU-145 prostate
EKVX NSCLC = system: EKVX NSCLC
HCC-2998 colon = system: HCC-2998 colon
HCT-116 colon = system: HCT-116 colon
HCT-15 colon = system: HCT-15 colon
HL-60(TB) leukemia = system: HL-60(TB) leukemia
HOP-62 NSCLC = system: HOP-62 NSCLC
HOP-92 NSCLC = system: HOP-92 NSCLC
HS 578T breast = system: HS 578T breast
HT29 colon = system: HT29 colon
IGROV1 ovarian = system: IGROV1 ovarian
K-562 leukemia = system: K-562 leukemia
KM12 colon = system: KM12 colon
LOX IMVI melanoma = system: LOX IMVI melanoma
M14 melanoma = system: M14 melanoma
MALME-3M melanoma = system: MALME-3M melanoma
MCF7 breast = system: MCF7 breast
MDA-MB-231 breast = system: MDA-MB-231 breast
MDA-MB-435 = system: MDA-MB-435
MOLT-4 leukemia = system: MOLT-4 leukemia
NCI-H226 lung = system: NCI-H226 lung
NCI-H23 lung = system: NCI-H23 lung
NCI-H460 lung = system: NCI-H460 lung
NCI-H522 lung = system: NCI-H522 lung
NCI/ADR-RES ovarian = system: NCI/ADR-RES ovarian
OVCAR-3 ovarian = system: OVCAR-3 ovarian
OVCAR-4 ovarian = system: OVCAR-4 ovarian
OVCAR-5 ovarian = system: OVCAR-5 ovarian
OVCAR-8 ovarian = system: OVCAR-8 ovarian
PC-3 prostate = system: PC-3 prostate
RPMI-8226 leukemia = system: RPMI-8226 leukemia
SF-268 CNS = system: SF-268 CNS
SF-295 CNS = system: SF-295 CNS
SF-539 CNS = system: SF-539 CNS
SK-MEL-2 melanoma = system: SK-MEL-2 melanoma
SK-MEL-28 melanoma = system: SK-MEL-28 melanoma
SK-MEL-5 melanoma = system: SK-MEL-5 melanoma
SK-OV-3 ovarian = system: SK-OV-3 ovarian
SN12C renal = system: SN12C renal
SNB-19 CNS = system: SNB-19 CNS
SNB-75 CNS = system: SNB-75 CNS
SR leukemia = system: SR leukemia
SW-620 colon = system: SW-620 colon
T-47D breast = system: T-47D breast
TK-10 renal = system: TK-10 renal
U251 CNS = system: U251 CNS
UACC-257 melanoma = system: UACC-257 melanoma
UACC-62 melanoma = system: UACC-62 melanoma
UO-31 renal = system: UO-31 renal
COLO 205 colon = system: COLO 205 colon

With `COc1ccc(C(=O)C2C(C#N)C(C#N)C3C=Cc4ccccc4N32)cc1` (configuration not stated) the GI50 (786-0 renal) was 4.43 µM, the TGI (786-0 renal) was > 100 µM and the GI50 (A498 renal) was 0.244 µM. For the same molecule, the TGI (A498 renal) was 3.13 µM, the GI50 (A549 NSCLC) was 2.4 µM and the TGI (A549 NSCLC) was > 100 µM. The GI50 (ACHN renal) was 1.43 µM, the TGI (ACHN renal) was > 100 µM and the GI50 (BT-549 breast) was 1.98 µM. For the same molecule, the TGI (BT-549 breast) was > 100 µM, the GI50 (CAKI-1 renal) was 0.46 µM and the TGI (CAKI-1 renal) was > 100 µM. The GI50 (CCRF-CEM leukemia) was 1.94 µM, the TGI (CCRF-CEM leukemia) was > 100 µM and the GI50 (DU-145 prostate) was 2.93 µM. The TGI (DU-145 prostate) was > 100 µM, the GI50 (EKVX NSCLC) was 6.29 µM and the TGI (EKVX NSCLC) was > 100 µM. The GI50 (HCC-2998 colon) was 2.99 µM, the TGI (HCC-2998 colon) was > 100 µM and the GI50 (HCT-116 colon) was 0.653 µM. The TGI (HCT-116 colon) was 14.9 µM, the GI50 (HCT-15 colon) was 0.844 µM and the TGI (HCT-15 colon) was > 100 µM. It also gave a GI50 (HL-60(TB) leukemia) of 1.23 µM, a TGI (HL-60(TB) leukemia) of 19.5 µM and a GI50 (HOP-62 NSCLC) of 3.76 µM. For the same molecule, the TGI (HOP-62 NSCLC) was > 100 µM, the GI50 (HOP-92 NSCLC) was 2.77 µM and the TGI (HOP-92 NSCLC) was > 100 µM. For the same molecule, the GI50 (HS 578T breast) was 2.1 µM, the TGI (HS 578T breast) was > 100 µM and the GI50 (HT29 colon) was 0.742 µM. The TGI (HT29 colon) was > 100 µM, the GI50 (IGROV1 ovarian) was 2.74 µM and the TGI (IGROV1 ovarian) was > 100 µM. The GI50 (K-562 leukemia) was 0.405 µM, the TGI (K-562 leukemia) was > 100 µM and the GI50 (KM12 colon) was 1.25 µM. For the same molecule, the TGI (KM12 colon) was > 100 µM, the GI50 (LOX IMVI melanoma) was 2.1 µM and the TGI (LOX IMVI melanoma) was > 100 µM. The GI50 (M14 melanoma) was 0.5 µM, the TGI (M14 melanoma) was > 100 µM and the GI50 (MALME-3M melanoma) was 2.67 µM. The TGI (MALME-3M melanoma) was > 100 µM, the GI50 (MCF7 breast) was 1.09 µM and the TGI (MCF7 breast) was > 100 µM. It also gave a GI50 (MDA-MB-231 breast) of 1.46 µM, a TGI (MDA-MB-231 breast) of 44.1 µM and a GI50 (MDA-MB-435) of 0.335 µM. The TGI (MDA-MB-435) was 1.24 µM, the GI50 (MOLT-4 leukemia) was 2.6 µM and the TGI (MOLT-4 leukemia) was > 100 µM. For the same molecule, the GI50 (NCI-H226 lung) was 2.29 µM, the TGI (NCI-H226 lung) was 30.2 µM and the GI50 (NCI-H23 lung) was 3.62 µM. The TGI (NCI-H23 lung) was > 100 µM, the GI50 (NCI-H460 lung) was 0.749 µM and the TGI (NCI-H460 lung) was > 100 µM. For the same molecule, the GI50 (NCI-H522 lung) was 2.45 µM, the TGI (NCI-H522 lung) was > 100 µM and the GI50 (NCI/ADR-RES ovarian) was 0.571 µM. For the same molecule, the TGI (NCI/ADR-RES ovarian) was > 100 µM, the GI50 (OVCAR-3 ovarian) was 0.642 µM and the TGI (OVCAR-3 ovarian) was 4.22 µM. The GI50 (OVCAR-4 ovarian) was 6 µM, the TGI (OVCAR-4 ovarian) was > 100 µM and the GI50 (OVCAR-5 ovarian) was 3.43 µM. The TGI (OVCAR-5 ovarian) was > 100 µM, the GI50 (OVCAR-8 ovarian) was 3.29 µM and the TGI (OVCAR-8 ovarian) was > 100 µM. The GI50 (PC-3 prostate) was 1.45 µM, the TGI (PC-3 prostate) was > 100 µM and the GI50 (RPMI-8226 leukemia) was 3.48 µM. The TGI (RPMI-8226 leukemia) was > 100 µM, the GI50 (SF-268 CNS) was 3.92 µM and the TGI (SF-268 CNS) was > 100 µM. For the same molecule, the GI50 (SF-295 CNS) was 2.82 µM, the TGI (SF-295 CNS) was > 100 µM and the GI50 (SF-539 CNS) was 1.32 µM. The TGI (SF-539 CNS) was 4.08 µM, the GI50 (SK-MEL-2 melanoma) was 7.44 µM and the TGI (SK-MEL-2 melanoma) was > 100 µM. For the same molecule, the GI50 (SK-MEL-28 melanoma) was 3.77 µM, the TGI (SK-MEL-28 melanoma) was > 100 µM and the GI50 (SK-MEL-5 melanoma) was 3.49 µM. For the same molecule, the TGI (SK-MEL-5 melanoma) was 19.8 µM, the GI50 (SK-OV-3 ovarian) was 7.3 µM and the TGI (SK-OV-3 ovarian) was > 100 µM. The GI50 (SN12C renal) was 2.5 µM, the TGI (SN12C renal) was > 100 µM and the GI50 (SNB-19 CNS) was 3.71 µM. For the same molecule, the TGI (SNB-19 CNS) was > 100 µM, the GI50 (SNB-75 CNS) was 0.278 µM and the TGI (SNB-75 CNS) was 5.57 µM. The GI50 (SR leukemia) was 0.544 µM, the TGI (SR leukemia) was > 100 µM and the GI50 (SW-620 colon) was 0.714 µM. For the same molecule, the TGI (SW-620 colon) was > 100 µM, the GI50 (T-47D breast) was 23.9 µM and the TGI (T-47D breast) was > 100 µM. The GI50 (TK-10 renal) was > 100 µM, the TGI (TK-10 renal) was > 100 µM and the GI50 (U251 CNS) was 2.82 µM. The TGI (U251 CNS) was > 100 µM, the GI50 (UACC-257 melanoma) was > 100 µM and the TGI (UACC-257 melanoma) was > 100 µM. For the same molecule, the GI50 (UACC-62 melanoma) was 0.781 µM, the TGI (UACC-62 melanoma) was > 100 µM and the GI50 (UO-31 renal) was 1.95 µM. The TGI (UO-31 renal) was > 100 µM.
With `COc1cccc(C2SCC(=O)N2c2ccc(-c3ccc(-n4c(-c5ccccc5)nc5ccccc5c4=O)cc3)cc2)c1OC` (configuration not stated) the TGI (786-0 renal) was > 100 µM, the TGI (A498 renal) was > 100 µM and the TGI (A549 NSCLC) was > 100 µM. For the same molecule, the TGI (ACHN renal) was > 100 µM, the TGI (BT-549 breast) was > 100 µM and the TGI (CAKI-1 renal) was > 100 µM. The TGI (CCRF-CEM leukemia) was > 100 µM, the TGI (COLO 205 colon) was > 100 µM and the TGI (DU-145 prostate) was > 100 µM. The TGI (EKVX NSCLC) was > 100 µM, the TGI (HCC-2998 colon) was > 100 µM and the TGI (HCT-116 colon) was > 100 µM. For the same molecule, the TGI (HCT-15 colon) was > 100 µM, the TGI (HL-60(TB) leukemia) was > 100 µM and the TGI (HOP-62 NSCLC) was > 100 µM. For the same molecule, the TGI (HOP-92 NSCLC) was > 100 µM, the TGI (HS 578T breast) was > 100 µM and the TGI (HT29 colon) was > 100 µM. For the same molecule, the TGI (IGROV1 ovarian) was > 100 µM, the TGI (K-562 leukemia) was > 100 µM and the TGI (KM12 colon) was > 100 µM. The TGI (LOX IMVI melanoma) was > 100 µM, the TGI (M14 melanoma) was > 100 µM and the TGI (MALME-3M melanoma) was > 100 µM. The TGI (MCF7 breast) was > 100 µM, the TGI (MDA-MB-231 breast) was > 100 µM and the TGI (MDA-MB-435) was > 100 µM. For the same molecule, the TGI (MOLT-4 leukemia) was > 100 µM, the TGI (NCI-H226 lung) was > 100 µM and the TGI (NCI-H23 lung) was > 100 µM. The TGI (NCI-H460 lung) was > 100 µM, the TGI (NCI-H522 lung) was > 100 µM and the TGI (NCI/ADR-RES ovarian) was > 100 µM. For the same molecule, the TGI (OVCAR-3 ovarian) was > 100 µM, the TGI (OVCAR-4 ovarian) was > 100 µM and the TGI (OVCAR-5 ovarian) was > 100 µM. The TGI (OVCAR-8 ovarian) was > 100 µM, the TGI (PC-3 prostate) was > 100 µM and the TGI (RPMI-8226 leukemia) was > 100 µM. For the same molecule, the TGI (SF-268 CNS) was > 100 µM, the TGI (SF-295 CNS) was > 100 µM and the TGI (SF-539 CNS) was > 100 µM. For the same molecule, the TGI (SK-MEL-2 melanoma) was > 100 µM, the TGI (SK-MEL-28 melanoma) was > 100 µM and the TGI (SK-MEL-5 melanoma) was > 100 µM. For the same molecule, the TGI (SN12C renal) was > 100 µM, the TGI (SNB-19 CNS) was > 100 µM and the TGI (SNB-75 CNS) was 89.1 µM. For the same molecule, the TGI (SR leukemia) was > 100 µM, the TGI (T-47D breast) was > 100 µM and the TGI (TK-10 renal) was > 100 µM. The TGI (U251 CNS) was > 100 µM, the TGI (UACC-257 melanoma) was > 100 µM and the TGI (UACC-62 melanoma) was > 100 µM. For the same molecule, the TGI (UO-31 renal) was > 100 µM.
